Reference: patent US6887669B1, “Reagents for assays for ligands” (Dade Behring Marburg GmbH, priority 1996, dated 2005)

How the values were obtained:
MPA enzyme immunoassay = test: Effect of salicylate as releasing agent on total dose-response curve of MPA enzyme immunoassay; settings: salicylate used as releasing agent
Excerpt: Salicylate is known to increase MPA free fraction in normal human plasma when present at concentrations that may be observed in chronic administration of aspirin (Nowak, infra). […] It is also known that 8-anilino-1-naphthalenesulfonic acid (ANS) functions as a releasing agent in immunoassays (Nerli, et al., Arch Int Physiol Biochim Biophys (1994) 102(1):5-8 and Seth, et al., Clin Chem (1975) 21(10):1406-1413. However, ANS has disadvantages because of its background absorbance at 340 nm and its susceptibility to light degradation. The background absorbance is particularly disadvantageous in enzyme immunoassays. However, ANS has been used in certain enzyme assays under conditions where its disadvantages can be tolerated.

[1] = tested on: MPA bound to plasma proteins in normal human plasma; test: MPA rates in plasma spikes in the presence of co-administered drugs and salicylate, with or without o-anisic acid, Example 4
Protocol: In a separate study, the ability of o-anisic acid to eliminate the effect of salicylate on rates of MPA plasma spikes was compared. Two sets of antibody reagents (Reagent A) were prepared to the basic formulation described in Example 2 above. In one reagent, no releasing agent was added; in another reagent, o-anisic acid was added at 12.5 mM. A common Reagent B was prepared as described in Example 2. Rates for four levels of MPA spikes into plasma and a plasma control were measured with each reagent set. […] Salicylate was present at 659 μg/mL. Rates were determined as described in Example 2 above with the exception of the absorbance read window, which was extended to cycle 20 where the assay was ended. Rates were determined using the 10 consecutive absorbance readings of cycles 11 through 20.

[2] = Background absorbance at 340 nm of Reagent A containing releasing agent; assay type: physicochemical; settings: for C A 340 nm (background absorbance): 3 μL negative NHP + 72 μL water + 155 μL Reagent A, 0.6 cm path; for C A 340 nm (background absorbance) / D ΔA = agent - control ΔA 340 nm: ANS 0.25 mM, anisic acids 12.5 mM in Rgt A
Protocol: In both runs, the background absorbance at 340 nm for each Reagent A was measured in duplicate on a 230-μL combination of 3 μL negative NHP, 72 μL of deionized water, and 155 μL Reagent A. The cell path length was 0.6 cm. […] These changes are noted as follows. Reagent B and water were added in cycle 4. The analysis was finished at the end of cycle 15. Rates were determined using the 5 absorbance readings of cycles 11 through 15.

[3] = Discoloration of Reagent A on exposure to light; assay type: physicochemical; settings: agent formulated in Reagent A
[4] = tested on: MPA bound to plasma proteins in normal human plasma (NHP); test: MPA enzyme immunoassay rates with releasing agents in Reagent A (NHP versus buffer), Example 2; settings: for I (H-G) Buff Rate Span: 0 to 10 μg/mL MPA in buffer; for J (H-F) Buff-NHP Rate Diff.: 10 μg/mL MPA, closer to zero = better releasing effect; for G Buff with 0 μg/mL MPA Rate / H Buff with 10 μg/mL MPA Rate: 50 mM MES buffer pH 7.1; for G Buff with 0 μg/mL MPA Rate / H Buff with 10 μg/mL MPA Rate / E NHP with 0 μg/mL MPA Rate / F NHP with 10 μg/mL MPA Rate: ANS 0.25 mM, anisic acids 12.5 mM in Rgt A
Protocol: Rates were determined on a Cobas Mira Plus® instrument (Roche Diagnostics Systems, Inc., Branchburg, N.J.). The temperature was kept at 37° C. for the entire assay. Timings were carried out in cycles with each cycle being 25 seconds. In cycle 1, the first cycle, 75 μL of water and 3 μL of a sample were mixed with 155 μL of A diluent in a 0.6 cm path length cuvette. This mixture was incubated until the addition of Reagent B in cycle 7. […] In cycle 7, seventy-five μL of Reagent B followed by 20 μL of water was then added to the cuvette, mixed, and incubated until the end of cycle 25 at which time the assay was finished. During the assay, absorbance readings at 340 nm were made at the end of every cycle. A best linear fit was then made using only the 12 consecutive absorbance readings of cycles 14 through 25 versus time in minutes. The slope of this line was the rate.
In these experiments, the diluent for Reagent A (Rgt A) was made somewhat differently than that in Example 1. However, the composition was the same, except for component 7 (releasing agent, o-anisic acid) and component 10 (concentration of MPA antibody). Five diluents were prepared, four with one of each of the above agents and one control with no agent. First, a 2×solution was made in the manner described in Example 1 but which had only components 1 through 5 and 9 at twice the amounts listed. Next, for three of the diluents, each of the three anisic acid isomers was weighed to achieve a final molarity of 12.5 mM and predissolved in one quarter the final volume of water and a minimum amount of 6 N NaOH (approximately 6 drops per 0.2 grams anisic acid). For the fourth diluent, the agent, ANS, was weighed to give a 0.25 mM final concentration and added to one quarter the final volume of water. The fifth diluent, the control, had no releasing agent. To make each of these five diluents, the appropriate amounts of the 2×solution, the 1×amount of BSA, component 8, and the 1×amount of the Pluronic 25R solution, component 6, were combined. Four of these then received the appropriate agent. All were mixed well. Where necessary, pH adjustments were made as described previously and each preparation was brought to the final volume with deionized water to achieve 1× concentrations of components. Each of these A diluents was then filtered through a 0.2 micron filter. Final pH measurements on each were all between 5.5 to 5.7. For each of these five A diluents, a corresponding Reagent A was made by adding antibody to MPA for a final concentration of 6.5 μg/mL. Reagent B (Rgt B) was prepared as described in Example 1 except that component 20 was omitted and 0.1% BSA (Miles Diagnostics, Kankakee, Ill.) was substituted for BLG.
In a total of two runs the effects of each of the four agents relative to a control of no agent was examined with respect to (1) background absorbance at 340 nm, (2) the rate of a negative MPA sample, (3) the rate span between 0 and 10 μg/mL MPA, and (4) the closeness of rate matching of a 10 μg/mL MPA spike in NHP and in buffer. Both runs included the control Reagent A. The first run evaluated Reagent A with ANS while the second run evaluated Reagent A preparations containing the structural isomers of anisic acid.
MPA was spiked into NHP and buffer (Buff) to achieve a final concentration of 10 μg/mL MPA. Buffer in this example was 50 mM MES (2-[N-morpholino]ethanesulfonic acid, obtained from Sigma Chemical Company) with 0.1% (weight/volume) sodium azide, pH 7.1. As with PBS, this buffer has no protein and thus no protein binding of MPA can occur.
In both runs, the background absorbance at 340 nm for each Reagent A was measured in duplicate on a 230-μL combination of 3 μL negative NHP, 72 μL of deionized water, and 155 μL Reagent A. The cell path length was 0.6 cm. The average A340 (A=absorbance) values are found in Column C of Table 1. Duplicate rates were determined on the spiked and unspiked NHP and buffer similar to Example 1. […]

[5] = cited from earlier work
[6] = tested on: MPA bound to plasma proteins in normal human plasma pool (NHP); test: EMIT-type enzyme immunoassay for MPA with o-anisic acid in Reagent A: quantitation of MPA spike in NHP versus protein-free PBS; settings: average of two spikes, formulation with o-anisic acid, pooled sd 0.4 μg/mL
Protocol: Reagent A was prepared by first making an anisic acid solution. Anisic acid was dissolved in 1 N NaOH in an amount equal to 25 mL per 1.52 grams of anisic acid. In a separate container was weighed 70% of the final weight of deionized water, to which was added components 1 through 5 inclusive and also component 6 using the prepared solution of Pluronic®25R2 at 10 mL thereof per 1017.9 g (or 1.0 liter) of final solution. This solution was stirred and the anisic acid solution was added. If necessary, the pH of the preparation was adjusted within the range of 5.50 to 5.70 with 6 N NaOH. Next, components 8 and 9 were added and the solution was stirred. If necessary, the pH was adjusted to the above range. […]
For Reagent B deionized water was weighed in an amount equal to 80% of the final weight. […] The conjugate, component 19, was added to achieve a rate of 300±10 mA/min; rate is defined as the change in absorbance at 340 nm per minute of reaction time and is usually expressed as mA/min.
Rates were determined on a Cobas Mira Plus® instrument (Roche Diagnostics Systems, Inc., Branchburg, N.J.). […] During the assay, absorbance readings at 340 nm were made at the end of every cycle. A best linear fit was then made using only the 12 consecutive absorbance readings of cycles 14 through 25 versus time in minutes. […]

[7] = salicylate 659 μg/mL + NI drugs in plasma, no releasing agent in Reagent A
[8] = plasma + methanol control, o-anisic acid 12.5 mM in Reagent A
[9] = plasma with NI drugs + salicylate 659 μg/mL, o-anisic acid 12.5 mM in Reagent A
[10] = plasma with non-interfering co-administered drugs, o-anisic acid 12.5 mM in Reagent A

SMILES	C A 340 nm (background absorbance) [2]	D ΔA = agent - control ΔA 340 nm [2]	I (H-G) Buff Rate Span [4]	J (H-F) Buff-NHP Rate Diff. [4]	G Buff with 0 μg/mL MPA Rate [4]	H Buff with 10 μg/mL MPA Rate [4]	E NHP with 0 μg/mL MPA Rate [4]	F NHP with 10 μg/mL MPA Rate [4]	also measured
O=C(O)c1ccccc1O [salicylic acid, 2-hydroxybenzoic acid, reference compound]									decrease in the total dose-response curve in an MPA enzyme immunoassay (MPA enzyme immunoassay): 25-50%; effect of salicylate on rates of MPA in normal human plasma ([1]; absence of releasing agents): increased rates of MPA in normal human plasma; Rate, MPA + NI + Salicylate, 0.5 μg/mL MPA, Antibody Reagent Only [1, 7]: 157; Rate, MPA + NI + Salicylate, 2.5 μg/mL MPA, Antibody Reagent Only [1, 7]: 190; Rate, MPA + NI + Salicylate, 5 μg/mL MPA, Antibody Reagent Only [1, 7]: 210; Rate, MPA + NI + Salicylate, 15 μg/mL MPA, Antibody Reagent Only [1, 7]: 250; absorbance above the control background at 340 nm ([2]; 25 mM in Reagent A): 0.311 absorbance units
O=S(=O)(O)c1cccc2cccc(Nc3ccccc3)c12 [ANS, 8-anilino-1-naphthalene sulfonic acid, reference compound]	0.779	0.322	120.2 mA/min	2.0 mA/min	156.0 mA/min	276.2 mA/min	158.2 mA/min	274.2 mA/min	discoloration of Reagent A when exposed to light [3]: visibly discolored when exposed to light
COc1cccc(C(=O)O)c1 [m-AA]	0.494	0.008	90.3 mA/min	−0.6 mA/min	189.4 mA/min	279.7 mA/min	188.1 mA/min	280.3 mA/min	
COc1c(C)c2c(c(O)c1C/C=C(\C)CCC(=O)OCCN1CCOCC1)C(=O)OC2 [MPA-M, morpholinoethyl (E)-6-(1,3-dihydro-4-hydroxy-6-methoxy-7-methyl-3-oxo-5-isobenzofuranyl)-4-methyl-4-hexenoate]									hydrolysis in vivo to MPA [5]: rapidly hydrolyzed in vivo to MPA
COc1ccc(C(=O)O)cc1 [p-AA]	0.494	0.008	96.0 mA/min	−2.1 mA/min	182.3 mA/min	278.3 mA/min	182.7 mA/min	280.4 mA/min	
COc1ccccc1C(=O)O [o-AA, o-methoxybenzoic acid]	0.490	0.004	109.3 mA/min	0.6 mA/min	168.2 mA/min	277.5 mA/min	169.5 mA/min	276.9 mA/min	effect of o-anisic acid in the antibody reagent on salicylate interference ([1]; o-anisic acid 12.5 mM in Reagent A): eliminated this potential problem; Rate, MPA + MeOH, 0 μg/mL MPA [1, 8]: 161; Rate, MPA + MeOH, 0.5 μg/mL MPA [1, 8]: 171; Rate, MPA + MeOH, 2.5 μg/mL MPA [1, 8]: 210; Rate, MPA + MeOH, 5 μg/mL MPA [1, 8]: 234; Rate, MPA + MeOH, 15 μg/mL MPA [1, 8]: 264; Rate, MPA + NI + Salicylate, 0 μg/mL MPA [1, 9]: 161; Rate, MPA + NI + Salicylate, 0.5 μg/mL MPA [1, 9]: 171; Rate, MPA + NI + Salicylate, 2.5 μg/mL MPA [1, 9]: 211; Rate, MPA + NI + Salicylate, 5 μg/mL MPA [1, 9]: 234; Rate, MPA + NI + Salicylate, 15 μg/mL MPA [1, 9]: 263; Rate, MPA + NI, 0 μg/mL MPA [1, 10]: 161; Rate, MPA + NI, 0.5 μg/mL MPA [1, 10]: 173; Rate, MPA + NI, 2.5 μg/mL MPA [1, 10]: 211; Rate, MPA + NI, 5 μg/mL MPA [1, 10]: 234; Rate, MPA + NI, 15 μg/mL MPA [1, 10]: 263; quantitation of a 10 μg/mL MPA spike in normal human plasma pool (NHP) [6]: 10.2 µg/mL; quantitation of a 10 μg/mL MPA spike in PBS ([6]; protein-free PBS): 10.4 µg/mL
